# Data from US20100234238A1, “METHOD FOR PROFILING KINASE INHIBITORS” (Janssen Pharmaceutica N V, priority 2006, published 2010).
# Tested on: tyrosine kinase activity in xenograft tumor lysates
# Test: PAMCHIP96 (140-peptide array) profiling of xenograft tumor lysates in absence or presence of MTKI
# Type: biochemical
# Conditions: 5 μM
# Description: 100 mg of frozen tumor or tissue blocks, or sections, are lysed in 1 ml of M-PER buffer (PIERCE) containing phosphatase and protease inhibitors (HALT, PIERCE). The suspension is mixed using a ULTRA-TURRAX blender (IKA werke), and centrifuged twice for 10 minutes at 12 000×g. Supernatant lysates are filtered through a 0.2 micrometer filter (Anotop 0.2 μm anopore filter; Whatmann). Lysates are flash frozen in liquid nitrogen and stored at −80C.
# Just prior to the PAMCHIP experiment, total protein content is quantitated in the lysates and lysates are diluted to 1 mg/ml in a total volume of 200 μl, with M-PER phosphatase and protease inhibitors (HALT, PIERCE). 10 μg of total lysate (corresponding to 10 μl) will be used per well on the PAMCHIP96.
# To all 200 μl lysates 10 units of benzonase (Novagen) is added and lysates are further incubated for 30 min on ice and next centrifuged for 10 minutes at 12 000×g. The supernatant is then 1:1 diluted with compound or DMSO diluted to the appropriate concentration in water, and lysates are further incubated exactly 60 min on ice. Meanwhile, a PAMCHIP96 tyrosine peptide chip (PAMGENE) is blocked with 2% BSA (filtered through a 0.2 μm anopore filter; Whatmann) using the standard setting of a PAMSTATION96 (PAMGENE).
# The composition of the kinase buffer is as follows: 1×ABL buffer (NEB), 0.5 mg/ml BSA (from 10 mg/ml NEB stock), 100 μM ATP (dissolved and diluted in 1×ABL buffer), 5 μg/ml PY20-FITC (ExAlpha Biologicals, azide-free preparation). A twofold concentrated kinase buffer is prepared chilled on ice, DMSO or compound is added as appropriate, and the solution is added 1:1 to the (compound treated) ice cold lysates, and immediately applied to a tyrosine peptide PAMCHIP96. The assay is run on a PAMSTATION96 according to standard procedures: after loading of the plate, solution is pumped once onto the wells, a first exposure is read (150 mSec) and then a kinetic reading program (reading every 5 min for 150 mSec) is run for 60 min. Lysates are run in 6 technical replicates for each condition; replicates are always applied horizontally next to each other to avoid vertical strip effects of the chip.
# The data (spot images) are further quantified and linked to the peptide identities using EVOLVE PAMGRID software (PAMGENE). The quantified data are then fit to a curve using CurveFitHT software (PAMGENE) using the Vinip2 curve fitting algorithm, applied on the first 30 min of the assay; the initial velocity is derived at the first kinetic time point read. All subsequent data analyses were done on initial velocities (Vini) using the software packages Omniviz and R (Ihaka, R. and Gentlemen, R. (1996) R: a language for data analysis and graphics. J. Comput. Graph. Stat., 5, 299-314).
# After replacing the Vini's lower than 0.1 by 0.1, all Vini's were log 2-transformed to approach normality. […] This test was done for each peptide separately using a mixed model (Littell, R. C., Milliken, G. A., Stroup, W. W., Wolfinger, R. D. 1996. SAS system for mixed models. Cary, N. C.: SAS Institute Inc.) allowing the incorporation of both technical variation (i.e., the variation across replicates) and biological variation (i.e., the variation among the various responding and non-responding cell lines or tumors). Variation between cell lines or tumors in Vini and in treatment effect on Vini was modeled respectively by random intercepts and random compound effects per cell line or tumor, nested in response status. The difference in compound-induced reduction in Vini between responding and non-responding cell lines or tumors was tested through the interaction between compound treatment and response status, both modeled as fixed effects.
smiles,measurement,setting,value
"COc1cc2ncnc3c2cc1OCCCCCN(C)Cc1ccc(Br)cc1N3 [MTKI, 4,6-ethanediylidenepyrimido[4,5-b][6,1,12]benzoxadiazacyclopentadecine, 17-bromo-8,9,10,11,12,13,14,19-octahydro-20-methoxy-13-methyl-]",ratio of initial velocity of peptide phosphorylation,"H322 xenograft tumor lysate, CDK7_157_169_S164",0.77
same,ratio of initial velocity of peptide phosphorylation,"H322 xenograft tumor lysate, EPHB1_921_933_Y928",0.75
same,ratio of initial velocity of peptide phosphorylation,"H322 xenograft tumor lysate, FAK1_569_581_Y576/Y577",0.82
same,ratio of initial velocity of peptide phosphorylation,"H322 xenograft tumor lysate, GSK3B_209_221_Y216",0.77
same,ratio of initial velocity of peptide phosphorylation,"H322 xenograft tumor lysate, K2C6E_53_65_S59",0.80
same,ratio of initial velocity of peptide phosphorylation,"H322 xenograft tumor lysate, MBP_259_271_Y261/Y268/S266",0.65
same,ratio of initial velocity of peptide phosphorylation,"H322 xenograft tumor lysate, MK10_216_228_T221/Y223",0.68
same,ratio of initial velocity of peptide phosphorylation,"H322 xenograft tumor lysate, NCF1_313_325_S315/S320",0.78
same,ratio of initial velocity of peptide phosphorylation,"H322 xenograft tumor lysate, NTRK2_699_711_Y702/Y706/Y707",0.76
same,ratio of initial velocity of peptide phosphorylation,"H322 xenograft tumor lysate, P2AB_297_309_T304/Y307",0.77
same,ratio of initial velocity of peptide phosphorylation,"H322 xenograft tumor lysate, PGFRB_572_584_Y579/Y581",0.67
same,ratio of initial velocity of peptide phosphorylation,"H322 xenograft tumor lysate, RAF1_331_343_S337/S338/Y339/Y340",0.79
same,ratio of initial velocity of peptide phosphorylation,"H322 xenograft tumor lysate, RB_804_816_S807/S811",0.75
same,ratio of initial velocity of peptide phosphorylation,"H322 xenograft tumor lysate, SYN1_2_14_S9",0.78
same,ratio of initial velocity of peptide phosphorylation,"H322 xenograft tumor lysate, TYRO3_679_691_Y686",0.80
same,ratio of initial velocity of peptide phosphorylation,"H322 xenograft tumor lysate, VEGFR2_944_956_Y951",0.75
same,ratio of initial velocity of peptide phosphorylation,"H322 xenograft tumor lysate, VINC_815_827_Y821",0.76
same,ratio of initial velocity of peptide phosphorylation,"H3255 xenograft tumor lysate, CDK7_157_169_S164",0.45
same,ratio of initial velocity of peptide phosphorylation,"H3255 xenograft tumor lysate, EPHB1_921_933_Y928",0.44
same,ratio of initial velocity of peptide phosphorylation,"H3255 xenograft tumor lysate, FAK1_569_581_Y576/Y577",0.48
same,ratio of initial velocity of peptide phosphorylation,"H3255 xenograft tumor lysate, GSK3B_209_221_Y216",0.57
same,ratio of initial velocity of peptide phosphorylation,"H3255 xenograft tumor lysate, K2C6E_53_65_S59",0.56
same,ratio of initial velocity of peptide phosphorylation,"H3255 xenograft tumor lysate, MBP_259_271_Y261/Y268/S266",0.47
same,ratio of initial velocity of peptide phosphorylation,"H3255 xenograft tumor lysate, MK10_216_228_T221/Y223",0.31
same,ratio of initial velocity of peptide phosphorylation,"H3255 xenograft tumor lysate, NCF1_313_325_S315/S320",0.73
same,ratio of initial velocity of peptide phosphorylation,"H3255 xenograft tumor lysate, NTRK2_699_711_Y702/Y706/Y707",0.48
same,ratio of initial velocity of peptide phosphorylation,"H3255 xenograft tumor lysate, P2AB_297_309_T304/Y307",0.66
same,ratio of initial velocity of peptide phosphorylation,"H3255 xenograft tumor lysate, PGFRB_572_584_Y579/Y581",0.66
same,ratio of initial velocity of peptide phosphorylation,"H3255 xenograft tumor lysate, RAF1_331_343_S337/S338/Y339/Y340",0.53
same,ratio of initial velocity of peptide phosphorylation,"H3255 xenograft tumor lysate, RB_804_816_S807/S811",0.52
same,ratio of initial velocity of peptide phosphorylation,"H3255 xenograft tumor lysate, SYN1_2_14_S9",0.50
same,ratio of initial velocity of peptide phosphorylation,"H3255 xenograft tumor lysate, TYRO3_679_691_Y686",0.51
same,ratio of initial velocity of peptide phosphorylation,"H3255 xenograft tumor lysate, VEGFR2_944_956_Y951",0.52
same,ratio of initial velocity of peptide phosphorylation,"H3255 xenograft tumor lysate, VINC_815_827_Y821",0.40
same,ratio of initial velocity of peptide phosphorylation,"SUM149 xenograft tumor lysate, EPHB1_921_933_Y928",0.85
same,ratio of initial velocity of peptide phosphorylation,"SUM149 xenograft tumor lysate, FAK1_569_581_Y576/Y577",0.94
same,ratio of initial velocity of peptide phosphorylation,"SUM149 xenograft tumor lysate, GSK3B_209_221_Y216",0.91
same,ratio of initial velocity of peptide phosphorylation,"SUM149 xenograft tumor lysate, K2C6E_53_65_S59",0.86
same,ratio of initial velocity of peptide phosphorylation,"SUM149 xenograft tumor lysate, MBP_259_271_Y261/Y268/S266",1.04
same,ratio of initial velocity of peptide phosphorylation,"SUM149 xenograft tumor lysate, MK10_216_228_T221/Y223",0.75
same,ratio of initial velocity of peptide phosphorylation,"SUM149 xenograft tumor lysate, NCF1_313_325_S315/S320",0.94
same,ratio of initial velocity of peptide phosphorylation,"SUM149 xenograft tumor lysate, NTRK2_699_711_Y702/Y706/Y707",0.85
same,ratio of initial velocity of peptide phosphorylation,"SUM149 xenograft tumor lysate, P2AB_297_309_T304/Y307",0.87
same,ratio of initial velocity of peptide phosphorylation,"SUM149 xenograft tumor lysate, PGFRB_572_584_Y579/Y581",0.69
same,ratio of initial velocity of peptide phosphorylation,"SUM149 xenograft tumor lysate, RAF1_331_343_S337/S338/Y339/Y340",0.99
same,ratio of initial velocity of peptide phosphorylation,"SUM149 xenograft tumor lysate, RB_804_816_S807/S811",0.83
same,ratio of initial velocity of peptide phosphorylation,"SUM149 xenograft tumor lysate, SYN1_2_14_S9",1.01
same,ratio of initial velocity of peptide phosphorylation,"SUM149 xenograft tumor lysate, TYRO3_679_691_Y686",1.03
same,ratio of initial velocity of peptide phosphorylation,"SUM149 xenograft tumor lysate, VEGFR2_944_956_Y951",0.86
same,ratio of initial velocity of peptide phosphorylation,"SUM149 xenograft tumor lysate, VINC_815_827_Y821",0.75
